In brackets after ≈: the same amount, converted by molar mass. Starred links: 1 amine or outer side, 2 acyl side, 3 side chain; linkers in the order of their positions; H or OH if unused. Non-standard residues stand in square brackets, D forms with d. Residues, ends and D or L forms follow the SMILES beside them. Groups on a side chain read outwards from the residue. *: point of attachment. γGlu = O=C(O)[C@H](CCC(=O)[*:2])N[*:1]; αMeF = C[C@](N)(Cc1ccccc1)C(=O)O; αMeK = C[C@](N)(CCCCN)C(=O)O; Lauroyl = CCCCCCCCCCCC(=O)*; αMeS = C[C@](N)(CO)C(=O)O; AEEA = NCCOCCOCC(=O)O; Aib = CC(C)(N)C(=O)O
Assays:
[1] = Canine study, MEDI7219 enterically coated tablets with or without Tris base, fresh or stressed (Example 19, Table 26); format: in vivo; details: beagle, dog, plasma, po, Beagle dogs
Text: The objective was to study influence of MEDI7219 (SEQ ID NO:2) enterically coated tablet formulation composition with or without Tris base on bioperformance Study design and outcomes are provided in Table 26.

[2] = Canine study, MEDI7219 tablets in acid-resistant capsules (Example 13); format: in vivo
Method: The formulations tested in this study contained the MEDI7219 (SEQ ID NO:2) peptide, whereas the SEQ ID NO:6 peptide was used in tablet formulations for the previous canine study in Example 12. Tablets were placed in acid-resistant capsules (one tablet/capsule) prior to dosing. […] (Table 20). This formulation contained 0.1 mg/kg MEDI7219 (SEQ ID NO:2) peptide and 300 mg total permeation enhancer (PE) consisting of a 1:2 ratio of sodium chenodeoxycholate to propyl gallate. This ratio worked better compared to a 2:1 ratio of these permeation enhancers (Group 9, Table 20). This study also confirmed the utility of Tris base as a pH stabilizer.

[3] = physchem
Text: A known amount of the permeation enhancer, the peptide, or both were combined with increasing amounts of buffer until the permeation enhancer and/or the peptide were completely solubilized.

[4] = Canine study, Na CDC:PG ratios, PE amount and MEDI7219 dose in enterically coated tablets (Example 22, Table 29); format: in vivo; details: Beagle dogs, oral enterically coated tablet
[5] = Canine study, MEDI7219 multi-unit particulate (MUPS) formulations (Example 16); format: in vivo; details: Oral capsule, MUPS 9 mg peptide, 88 mg Na CDC, 190 mg PG
Method: Ten different Multi-unit particulate (MUPS) formulations were prepared (Table 23) using the MEDI7219 (SEQ ID NO:2) peptide and permeation enhancers. The manufacturing process for the MUPS formulation was as follows. A solution of MEDI7219 (SEQ ID NO:2) peptide, sodium chenodeoxycholate and propyl gallate was prepared in water and sprayed onto sugar spheres in a Glatt Mini fluid bed coater. Following drying, sugar spheres coated with peptide and permeation enhancers were coated to result in the compositions described in Table 23.

[6] = in vivo; details: beagle, dog, po
Text: The following materials and methods were used for quantitative measurements of GLP-1 peptide analogs in plasma (e.g., rat or dog plasma) in the Examples below. These methods used a SCIEX 6600 TripleTOF mass spectrometer coupled with a Shimadzu ultra-high performance liquid chromatography (UHPLC). The specificity of the method was ensured by the retention time, the selected mass for Single-Reaction-Monitoring (SRM) mode, and the selected fragment mass in MS/MS (MS^2) mode. […] The analytes of interest were analyzed from plasma, a complex biological matrix. Although protein precipitation using organic solvent can reduce matrix interference, significant background still persists. The high mass accuracy offered by the TripleTOF mass spectrometers further eliminated background noise, thus enhancing signal: noise (S/N) and allowing improved quantification.
The plasma extraction procedure used the following steps: • Samples, standards, and quality controls were incubated until they reached room temperature. They were then incubated at 60° C. for 2 minutes and cooled down to room temperature, vortexed, and spun down. • 70 μL of samples, standards, or quality controls were transferred into a 1 mL 96-well plate. • In each well, 420 uL of Precipitation Solution was added. The plate was sealed and shook for 10 minutes on a plate shaker at 600 rpm. • The plate was centrifuged at 18G, 2500 RFC, 20° C. for 10 minutes. • The plate was carefully removed, and the upper clear supernatant was extracted with a 200 uL multichannel pipette into a new 96-well protein lobind plate. The supernatant was extracted twice for each well, and the supernatants were combined. • The Plate was placed in TurboVap and the extracted supernatant was dried completely with heated (65° C.) Nitrogen gas at 60 Fahrenheit (Fh). • After the plate was completely dry, the plates were covered and incubated at room temperature for at least 30 minutes until the plate returned back to ambient temperature. • 150 μL of Reconstitution solution was added to each well. The plate was covered with a pierceable place seal and shaken at 600 rpm for 10 minutes. • The samples were submitted to the LC-MS/MS on the same day of Preparation
Quantification of the data obtained using the high resolution SCIEX 6600 instrument was then performed as follows: • For the quantification, extracted ion chromatograms (XIC) using 0.2 Da m/z extraction window centered on the accurate mass of each fragment ion were generated. Accurate mass was calculated from the structure of the compound. […] Concentrations of the target analyte in unknown samples were obtained by regression analysis using linear fits of peak areas vs. analyte concentration, weighted 1/(concentration). • The quality of the assay was controlled by the quality control samples. • Either Experiment 1 or Experiment 2 could be used for the quantification of the GLP-1 peptide analogs in high resolution mode.
MEDI7219 (SEQ ID NO:2) formulations were studied in the following canine study, which was designed to compare different tablet delivery systems and peptides in enterically coated tablet formulation compositions delivered orally. […]
The efficacy of sodium caprate as a permeation enhancer was also evaluated.

bioavailability ([1]; 3 mg/dog, freshly prepared enterically coated no Tris tablet): 5.2% | bioavailability ([1]; 3 mg/dog, freshly prepared enterically coated tablets with Tris): 12.4% | bioavailability ([1]; stressed enterically coated tablet with Tris): 3.8% | bioavailability ([1]; stressed enterically coated tablet without Tris): 9.6% | F ([2]; Intravenous, 0.01 mg/kg, 0.1 mg/mL in 50 mM Tris, 150 mM Mannitol, 0.02% Polysorbate 80, pH8.0): 100% | F ([2]; Oral tablet in capsule, Group 8: 1 mg peptide, 100 mg Na CDC, 200 mg PG): 10.7% | F ([2]; Oral tablet in capsule, Group 9: 1 mg peptide, 200 mg Na CDC, 100 mg PG): 5.0% | F ([2]; Oral tablet in capsule, Group 12: 1 mg peptide, 33.3 mg Na CDC, 16.6 mg PG (NO TRIS)): 0% | solubility ([3]; pH 5, aqueous buffer, thermodynamic from solid): < 10 mg/mL | solubility ([3]; pH 5.5): < 10 mg/mL | solubility ([3]; pH 6, aqueous buffer, thermodynamic from solid): 75 mg/mL (≈ 17.2 mM) | solubility ([3]; pH 7): 150 mg/mL (≈ 34.5 mM) | solubility ([3]; pH 7.5): 180 mg/mL (≈ 41.4 mM) | solubility as a function of pH (in words) ([3]; pH 7.5): increased in the range of pH 7.0 to 9.0 | solubility ([3]; pH 8): 200 mg/mL (≈ 45.9 mM) | solubility ([3]; pH 9): > 200 mg/mL | F ([4]; 150 mg Na CDC and no PG): ~2% | F ([4]; 150 mg PE, 1:2 Na CDC:PG ratio): ~6% | F ([4]; 150 mg PE, 2:1 Na CDC:PG ratio): ~7% | F ([4]; 6.5:1 Na CDC:PG ratio (130 mg Na CDC, 20 mg PG)): ~4% | F ([5]; 10% Carbopol 71G Mucoadhesive polymer + 25% pH 5.5 EC): 0.393% | F ([5]; 10% Carbopol 71G Mucoadhesive polymer + 25% pH 7.0 EC): 0.582% | F ([5]; 10% Polycarbophill AA Mucoadhesive polymer + 25% pH 5.5 EC): 0.124% | F ([5]; 10% Polycarbophill AA Mucoadhesive polymer + 25% pH 7.0 EC): 0.572% | F ([5]; + 10% Eudragit(RL + RS) + 25% pH 5.5 EC): 0.537% | F ([5]; pH 5.5 EC): 1.30% | F ([5]; pH 7.0 EC): 2.54% | AUC [6]: 13500 ng·h/mL | half-life [6]: 10 h
Compound: CCCCCCCCCCCC(=O)N[C@@H](CCC(=O)NCCOCCOCC(=O)NCCOCCOCC(=O)NCCCC[C@H](NC(=O)[C@H](C)NC(=O)[C@@H](NC(=O)[C@](C)(Cc1ccccc1)NC(=O)[C@H](CCC(=O)O)NC(=O)[C@](C)(CCCCN)NC(=O)[C@H](C)NC(=O)[C@H](C)NC(=O)[C@H](CCC(=O)O)NC(=O)CNC(=O)[C@H](CCC(=O)O)NC(=O)[C@H](CC(C)C)NC(=O)[C@H](CCCCNC(=O)COCCOCCNC(=O)COCCOCCNC(=O)CC[C@H](NC(=O)CCCCCCCCCCC)C(=O)O)NC(=O)[C@H](CO)NC(=O)[C@](C)(CO)NC(=O)[C@@H](NC(=O)[C@H](CC(=O)O)NC(=O)[C@H](CO)NC(=O)[C@@H](NC(=O)[C@](C)(Cc1ccccc1)NC(=O)[C@H](CO)NC(=O)CNC(=O)[C@H](CCC(=O)O)NC(=O)C(C)(C)NC(=O)[C@@H](N)Cc1c[nH]cn1)[C@@H](C)O)C(C)C)[C@@H](C)CC)C(=O)N[C@H](C(=O)N[C@H](C(=O)N[C@@H](CCC(=O)O)C(=O)NCC(=O)NCC(N)=O)C(C)C)C(C)C)C(=O)O [MEDI7219, Free-H-[AIB]-EGS-[αMePhe]-TSDV-[αMeSer]-SK[(PEG2)2-γE-Lauroyl]-LEGEAA-[αMeLys]-E-[αMePhe]-IAK[(PEG2)2-γE-Lauroyl]-VVEGG-amide] (H-H[Aib]EGS[αMeF]TSDV[αMeS]SK([AEEA-AEEA-γGlu-Lauroyl])LEGEAA[αMeK]E[αMeF]IAK([AEEA-AEEA-γGlu-Lauroyl])VVEGG-NH2)
